Experimental data: US20250129109A1

Tests used:
[1] = tested on: stem cells from human exfoliated deciduous teeth (SHED1); experiment: Cell cytotoxic test, stem cells from human exfoliated deciduous teeth; details: IC50 as silver concentration
[2] = tested on: human gingival fibroblast cells (HGF-1); experiment: Cell cytotoxic test, human gingival fibroblast cells; details: HGF-1 cells; IC50 as silver concentration

C1N2CN3CN1CP(C2)C3.C1N2CN3CN1CP(C2)C3.[Ag+].[F-] [SCF, [Ag(1,3,5-triaza-7-phosphaadamantane)2]F]
IC50 against SHED1 (cell cytotoxicity) [1]: 34.54±5.09 ppm | IC50 against HGF-1 (cell cytotoxicity) [2]: 43.98±12.80 ppm
